Assay results: patent publication US6875758B2, “Method of treating hyperlipidemic and hyperglycemic conditions in mammals using pregnadienols and pregnadienones” (Council of Scientific & Industrial Research, priority 1999, dated 2005)

Tests used:
Progestin Receptor = target: T1, Progestin Receptor (Homo sapiens, UniProt P06401); conditions: cited from earlier work; for Progestin Receptor Binding Affinity: relative binding affinity
T1 sequence (P06401 1-933): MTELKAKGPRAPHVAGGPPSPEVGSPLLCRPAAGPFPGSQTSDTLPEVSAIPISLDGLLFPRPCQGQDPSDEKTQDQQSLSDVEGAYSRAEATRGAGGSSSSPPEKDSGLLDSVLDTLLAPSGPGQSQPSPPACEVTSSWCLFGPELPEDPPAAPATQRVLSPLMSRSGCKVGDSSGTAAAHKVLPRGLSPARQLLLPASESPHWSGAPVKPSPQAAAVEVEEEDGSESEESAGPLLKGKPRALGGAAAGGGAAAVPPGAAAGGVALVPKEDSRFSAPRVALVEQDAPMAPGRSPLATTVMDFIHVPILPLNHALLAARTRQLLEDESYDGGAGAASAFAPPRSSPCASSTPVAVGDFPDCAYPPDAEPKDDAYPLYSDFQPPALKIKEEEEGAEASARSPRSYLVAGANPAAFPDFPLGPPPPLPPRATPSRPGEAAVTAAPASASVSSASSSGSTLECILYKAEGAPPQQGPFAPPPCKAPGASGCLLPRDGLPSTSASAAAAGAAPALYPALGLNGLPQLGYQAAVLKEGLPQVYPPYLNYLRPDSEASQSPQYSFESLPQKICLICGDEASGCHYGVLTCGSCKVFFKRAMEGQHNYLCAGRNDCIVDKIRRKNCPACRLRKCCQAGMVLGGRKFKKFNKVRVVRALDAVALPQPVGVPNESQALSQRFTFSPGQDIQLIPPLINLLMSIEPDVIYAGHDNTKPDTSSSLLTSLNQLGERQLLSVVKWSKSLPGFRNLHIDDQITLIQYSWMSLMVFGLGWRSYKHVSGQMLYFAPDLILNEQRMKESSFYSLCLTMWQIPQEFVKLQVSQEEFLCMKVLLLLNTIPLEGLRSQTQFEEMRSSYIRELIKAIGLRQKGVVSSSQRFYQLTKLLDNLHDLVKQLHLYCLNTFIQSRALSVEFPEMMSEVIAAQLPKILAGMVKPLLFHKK

[1] = test system: endometrial proliferation; assay: Clauberg assay, endometrial proliferation on McPhail scale; type: in vivo; conditions: 50 mg/kg
Description: The progestational activity was also tested in vivo by Clauberg assay method. The degree of endometrial proliferation was estimated on the McPhail scale where 3′ or 4′ was considered as a full progestational effect.

Androgen Receptor = target: T2, Androgen Receptor (Homo sapiens, UniProt P10275); conditions: relative binding affinity; cited from earlier work
T2 sequence (P10275 1-920): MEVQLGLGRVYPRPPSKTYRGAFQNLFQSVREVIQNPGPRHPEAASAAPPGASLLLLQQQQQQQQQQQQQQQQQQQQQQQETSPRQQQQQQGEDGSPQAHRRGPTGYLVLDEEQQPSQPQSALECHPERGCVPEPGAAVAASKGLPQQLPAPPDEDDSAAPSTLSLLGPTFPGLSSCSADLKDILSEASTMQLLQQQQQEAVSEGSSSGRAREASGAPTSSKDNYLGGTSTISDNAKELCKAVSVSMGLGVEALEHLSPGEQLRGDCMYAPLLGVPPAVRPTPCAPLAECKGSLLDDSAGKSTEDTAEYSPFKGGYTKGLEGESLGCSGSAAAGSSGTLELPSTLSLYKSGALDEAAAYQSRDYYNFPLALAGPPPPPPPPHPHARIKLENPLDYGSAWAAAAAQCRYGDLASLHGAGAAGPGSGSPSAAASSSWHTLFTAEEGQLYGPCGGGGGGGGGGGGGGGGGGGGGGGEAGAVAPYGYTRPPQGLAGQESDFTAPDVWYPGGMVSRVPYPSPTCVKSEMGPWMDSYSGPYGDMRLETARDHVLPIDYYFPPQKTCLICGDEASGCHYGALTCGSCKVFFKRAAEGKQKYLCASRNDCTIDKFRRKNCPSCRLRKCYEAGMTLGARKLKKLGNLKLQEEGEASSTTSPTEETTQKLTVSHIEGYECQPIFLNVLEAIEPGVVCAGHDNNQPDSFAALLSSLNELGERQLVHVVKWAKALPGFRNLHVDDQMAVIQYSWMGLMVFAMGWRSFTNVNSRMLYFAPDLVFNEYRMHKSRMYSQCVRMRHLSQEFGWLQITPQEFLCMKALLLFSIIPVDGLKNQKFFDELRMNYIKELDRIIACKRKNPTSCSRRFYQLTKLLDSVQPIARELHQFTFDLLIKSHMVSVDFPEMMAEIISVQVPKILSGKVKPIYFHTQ

Row | Compound | Progestin Receptor Binding Affinity (Progestin Receptor) | progestational activity [1] | Androgen Receptor Binding Affinity (Androgen Receptor) | Selectivity Index (A/P ratio) (Progestin Receptor; androgen vs progestin receptor)
1 | C#C[C@]1(O)CC[C@H]2[C@@H]3CCC4=CC(=O)CC[C@@H]4[C@H]3C(=C)C[C@@]21CC [3-Keto-desogestrel] | 8.6 | – | – | –
2 | CC(=O)[C@H]1CC[C@H]2[C@@H]3CCC4=CC(=O)CC[C@]4(C)[C@H]3CC[C@]12C [Progesterone, reference compound] | – | marked progestational activity | – | –
3 | C#C[C@]1(O)C=C[C@H]2[C@@H]3CCC4=CC(=O)CC[C@@H]4[C@H]3CC[C@@]21CC [Gestodene] | 9.21 | – | 0.154 | 28
